Reference: publication PMC5711933, “Intracellular biomass flocculation as a key mechanism of rapid bacterial killing by cationic, amphipathic antimicrobial peptides and peptoids” (Scientific Reports, 2017)
Non-standard residues stand in square brackets, D forms with d. Residues, ends and D or L forms follow the SMILES beside them. Nspe = C[C@H](NCC(=O)O)c1ccccc1; Nlys = NCCCCNCC(=O)O

What was measured:
[1] = tested on: Bioluminescent P. aeruginosa; format: cell-based, Pseudomonas aeruginosa; settings: 12.5 µM, LB, 37 °C, 10 min; average of three independent experiments with two replicates each
Procedure: The decrease in bioluminescence at 37 °C was measured for a range of concentrations from 0 – 100 μM (Supp. Figs. S6 and S7).
Bioluminescent P. aeruginosa [73] was grown at 37 °C in Luria-Bertani (LB) broth. […] In a 96-well plate, 50 µL of P. aeruginosa solution (1 × 10^6 CFU/mL) was added to 50 µL of antimicrobial solution, and the bioluminescence was measured using an IVIS imaging system (a Xenogen product from Caliper Life Sciences, Hopkinton, MA) at 10 min intervals for 2 h. The reported values are the average of three independent experiments with two replicates each.

[2] = RP-HPLC elution (% ACN) as measure of hydrophobicity; format: physicochemical; settings: chromatographic hydrophobicity; gradient of 5–95% acetonitrile (ACN) over 45 minutes, C18 column, 0.2 mL/min; average of three replicates
E. coli ATCC 35218 [3] = assay: Bacterial count by plating after treatment, before TEM sample preparation; format: cell-based
Procedure: E. coli ATCC 35218, grown overnight at 35 °C in Mueller-Hinton broth (MHB), were resuspended in 1X (150 mM) PBS, pH 7.4, and diluted to a concentration of 1 × 10^8 CFU/mL. Aqueous peptide/peptoid stock solutions were added to 1 mL aliquots of the suspension to the desired final concentration. After 1 hour, small volumes of each sample were serially diluted, plated, and incubated overnight at 35 °C, to be counted the following day. The remaining volume of each sample was centrifuged, and the pellet resuspended and enrobed in 5–10 µL of 2% low-melting agarose (gelling temperature 25° ± 5 °C) then drawn up into the tip of a Pasteur pipette. The solidified rods were extruded into fixative (2% glutaraldehyde, 2% paraformaldehyde, 50 mM PBS, pH 7.4). […] 50 nm thin sections of embedded samples were cut using a diamond knife, stained for 5 min in 5% aqueous uranyl acetate, then rinsed in H2O. Sections were examined in a JEOL 1230 TEM. Experimental conditions were each repeated in at least two independent trials. For each replicate of each sample, bacteria across the thin section were first surveyed to determine morphological characteristics representative of that sample, then images were captured of at least five bacteria displaying those morphologies with an emphasis on clean (i.e., orthogonal) transverse and/or longitudinal sections. Each image shown is thus representative of the ultrastructural characteristics observed in bacteria throughout a given sample and between replicates.

E. coli ATCC 35218 [4] = assay: Bacterial count by plating after 1-hour treatment, before SEM sample preparation; format: cell-based; settings: 1 hour in PBS, control 5 × 10^5 CFU/mL
Procedure: E. coli was treated with 10 μM peptide or peptoid for 1 hour in phosphate-buffered saline (PBS). […] We used 10 μM peptide/peptoid for all samples since it is near the MICs of the majority of the oligomers.
Before fixation, aliquots of each samples were serially diluted and plated on agar to determine the concentration of live bacteria remaining after the 1-hour treatment. […] (1) SEM samples were treated in PBS (as discussed above), whereas MIC assays are performed in cation-adjusted Mueller-Hinton broth. AMPs and ampetoids are known to interact with ions in the media (for example, when switching from plain Mueller-Hinton broth to cation-adjusted Mueller-Hinton broth)[1], so differences in activity may be due to changes in media composition. (2) the treatments were for one hour only, whereas MICs are determined after 16 hours of growth. […] (3) Some of these compounds may cause inhibition of growth without causing bacterial cell death (i.e., they are bacteriostatic—which is what the MIC indicates—rather than bactericidal—which is determined by plating and counting colonies). […]
Overnight cultures of E. coli ATCC 35218 were centrifuged for 10 min and 2500 × g at room temperature, then resuspended in PBS. […] Bacterial concentrations of the diluted suspensions were calculated from their OD590 values using optical density curves derived from pre-determined concentrations. […]

Erythrocytes = assay: Hemolysis assay; format: cell-based; settings: human erythrocytes in PBS pH 7.4, 1 h at 37 °C, A350; three independent replicates (two for LL-37 and fowlicidin-1)
Procedure: The plate was then centrifuged at 1200 g for 15 min, 100 μL of the supernatant from each well transferred to a fresh microtiter plate, and A350 measured.

EGFP-Luc plasmid = assay: DNA retardation assay (gel electrophoresis); format: binding; settings: EGFP-Luc plasmid in TBS, complexes 20 min at room temperature, 1–2% agarose gel
Procedure: DNA retardation was analyzed by gel electrophoresis. Peptoid/peptide-DNA complexes were formed by adding 10 µL of peptide/peptoid solution of varying concentrations to 10 µL DNA solution (EGFP-Luc plasmid in Tris-buffered saline (TBS) buffer), and the resulting solution was mixed by gentle aspiration. Complexes were incubated for 20 min at room temperature. After complex formation, 20 µL of each sample were loaded onto a 1–2% agarose gel in Tris/borate/EDTA (TBE) buffer, which ran at 120 V for 15 min. DNA bands on the gel were visualized under UV light by ethidium bromide staining.

E. coli ATCC 35218 [5] = format: cell-based; settings: CAMHB, 35 °C, 16 h, final 5 × 10^5 CFU/mL; reproducible between three independent replicates
Procedure: MICs were determined according to CLSI M7-A6 protocols in a 96-well microtiter plate. In test wells, 50 μL bacterial inoculum (1 × 10^6 CFU/ml) in cation-adjusted Mueller-Hinton broth (CAMHB) was added to 50 μL peptoid solution in CAMHB (prepared by 1:2 serial dilutions). Positive controls contained 50 μL inoculum and 50 μL CAMHB without peptoid. […] MIC values reported were reproducible between three independent experimental replicates, each consisting of two parallel trials.

SMILES: C[C@@H](c1ccccc1)N(CC(N)=O)C(=O)CN(C(=O)CN(CCCCN)C(=O)CN(C(=O)CN(C(=O)CN(CCCCN)C(=O)CN(C(=O)CN(C(=O)CN(CCCCN)C(=O)CN(C(=O)CN(C(=O)CNCCCCN)[C@@H](C)c1ccccc1)[C@@H](C)c1ccccc1)[C@@H](C)c1ccccc1)[C@@H](C)c1ccccc1)[C@@H](C)c1ccccc1)[C@@H](C)c1ccccc1)[C@@H](C)c1ccccc1 [compound 1] (H-[Nlys][Nspe][Nspe][Nlys][Nspe][Nspe][Nlys][Nspe][Nspe][Nlys][Nspe][Nspe]-NH2)
- Decrease in bioluminescence within 10 min [1]: ~ 99.9%
- % ACN at RP-HPLC elution [2]: 64.2%
- TEM: Bacterial count after 10 µM treatment (% of control) (E. coli ATCC 35218 [3]; 10 µM, 1 hour in PBS pH 7.4, control 1 × 10^8 CFU/mL): 0.2 % of control
- Bacteria remaining after 5-min treatment (E. coli ATCC 35218 [3]; 100 µM, 5 minutes): 1 × 10^4 CFU/mL
- Bacteria remaining after 5-min treatment (% of bacteria in the control) (E. coli ATCC 35218 [3]; 100 µM, 5 minutes): 0.01%
- TEM: Bacterial count after 100 µM treatment (% of control) (E. coli ATCC 35218 [3]; 100 µM, 1 hour in PBS pH 7.4, control 1 × 10^8 CFU/mL): 0 (0) % of control
- Bacterial killing after 15-min, 30-min, and 60-min treatments (E. coli ATCC 35218 [3]; 100 µM, 15, 30 and 60 minutes): all bacteria were killed
- SEM: Bacterial count after 10 µM treatment (% of control) (E. coli ATCC 35218 [4]): 40 % of control
- HD10 (hemolytic dose; concentration for 10% hemolysis) (Erythrocytes): 14 µM
- HD50 (hemolytic dose; concentration for 50% hemolysis) (Erythrocytes): 62 µM
- Retardation assay: mass of compound required to completely retard migration of 1 µg of DNA (EGFP-Luc plasmid): 3.0 µg
- E. coli ATCC 35218 MIC (E. coli ATCC 35218 [5]): 6.3 µM
